Target: murine STING protein (amino acids 154-378) (Mus musculus (Mouse), UniProt Q3TBT3)
Experiment: Murine STING [3H] 2′,3′-cGAMP scintillation proximity competition binding assay
Conditions: read-out: Murine Binding IC50

Sequence of murine STING protein (amino acids 154-378) (Q3TBT3 154-378): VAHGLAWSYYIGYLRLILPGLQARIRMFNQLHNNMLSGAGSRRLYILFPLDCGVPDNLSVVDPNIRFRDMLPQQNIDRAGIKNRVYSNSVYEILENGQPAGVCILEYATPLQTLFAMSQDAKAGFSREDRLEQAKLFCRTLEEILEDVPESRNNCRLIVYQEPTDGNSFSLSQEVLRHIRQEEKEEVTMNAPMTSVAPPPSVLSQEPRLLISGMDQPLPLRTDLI

Structure (SMILES) | IC50 [µM]
Nc1nc2c(ncn2[C@@H]2O[C@@H]3COP(=O)(S)OCCn4c(nc5cncnc54)COP(=O)(S)O[C@@H]2[C@@H]3O)c(=O)[nH]1 (mixture of isomers) [Example 15A, (1R,21R,23R,24R)-23-(2-Amino-6-oxo-6,9-dihydro-1H-purin-9-yl)-24-hydroxy-3,18-disulfanyl-2,4,17,19,22-pentaoxa-7,10,12,14-tetraaza-3lambda5,18lambda5-diphosphatetracyclo[19.2.1.06,14.08,13]tetracosa-6,8,10,12-tetraene-3,18-dione] | < 1
Nc1nc2c(ncn2[C@@H]2O[C@@H]3COP(=O)(S)OCCn4c(nc5c(=O)[nH]cnc54)COP(=O)(S)O[C@@H]2[C@@H]3F)c(=O)[nH]1 (single isomer, unassigned) [Example 3B] | 1 to 9.99
Nc1nc2c(ncn2[C@@H]2O[C@@H]3COP(=O)(S)OCCn4c(nc5c(=O)[nH]cnc54)COP(=O)(S)O[C@@H]2[C@@H]3F)c(=O)[nH]1 (single isomer, unassigned) [Example 3C] | < 1
Nc1nc2c(ncn2[C@@H]2O[C@@H]3COP(=O)(S)OCCn4c(nc5c(=O)[nH]cnc54)COP(=O)(S)O[C@@H]2[C@@H]3F)c(=O)[nH]1 (single isomer, unassigned) [Example 3D] | 1 to 9.99
Nc1nc2c(ncn2[C@@H]2O[C@@H]3COP(=O)(O)OCCn4c(nc5cncnc54)COP(=O)(S)O[C@@H]2[C@@H]3F)c(=O)[nH]1 (single isomer, unassigned) [Example 5A] | < 1
Nc1nc2c(ncn2[C@@H]2O[C@@H]3COP(=O)(O)OCCn4c(nc5cncnc54)COP(=O)(S)O[C@@H]2[C@@H]3F)c(=O)[nH]1 (single isomer, unassigned) [Example 5B] | 1 to 9.99
Nc1nc2c(ncn2[C@@H]2O[C@@H]3COP(=O)(S)OCCn4c(nc5cncnc54)COP(=O)(O)O[C@@H]2[C@@H]3F)c(=O)[nH]1 (single isomer, unassigned) [Example 6A] | < 1
Nc1nc2c(ncn2[C@@H]2O[C@@H]3COP(=O)(S)OCCn4c(nc5cncnc54)COP(=O)(O)O[C@@H]2[C@@H]3F)c(=O)[nH]1 (single isomer, unassigned) [Example 6B] | < 1
Nc1nc2c(ncn2[C@@H]2O[C@@H]3COP(=O)(S)OCCn4c(nc5cnc(C6CC6)nc54)COP(=O)(S)O[C@@H]2[C@@H]3F)c(=O)[nH]1 (single isomer, unassigned) [Example 12C] | < 1
Nc1nc2c(ncn2[C@@H]2O[C@@H]3COP(=O)(S)OCCn4c(nc5cnc(C6CC6)nc54)COP(=O)(S)O[C@@H]2[C@@H]3F)c(=O)[nH]1 (single isomer, unassigned) [Example 12D] | 1 to 9.99
Nc1nc2ncn([C@@H]3O[C@@H]4COP(=O)(S)OCCn5c(nc6cc(Cl)cnc65)COP(=O)(S)O[C@@H]3[C@@H]4F)c2c(=O)[nH]1 (single isomer, unassigned) [Example 13A] | < 1
Nc1nc2c(ncn2[C@@H]2O[C@@H]3COP(=O)(S)OCCn4c(nc5cc(Cl)cnc54)COP(=O)(S)O[C@@H]2[C@@H]3F)c(=O)[nH]1 (single isomer, unassigned) [Example 14A] | < 1
Nc1nc2c(ncn2[C@@H]2O[C@@H]3COP(=O)(S)OCCn4c(nc5cc(Cl)cnc54)COP(=O)(S)O[C@@H]2[C@@H]3F)c(=O)[nH]1 (single isomer, unassigned) [Example 14C] | < 1
Nc1nc2c(ncn2[C@@H]2O[C@@H]3COP(=O)(S)OCCn4c(nc5cc(Cl)cnc54)COP(=O)(S)O[C@@H]2[C@@H]3F)c(=O)[nH]1 (single isomer, unassigned) [Example 14D] | < 1
Nc1nc2c(ncn2[C@@H]2O[C@@H]3COP(=O)(S)OCCn4c(nc5cncnc54)COP(=O)(S)O[C@@H]2[C@@H]3O)c(=O)[nH]1 (single isomer, unassigned) [Example 15C] | < 1
Nc1nc2c(ncn2[C@@H]2O[C@@H]3COP(=O)(S)OCCn4c(nc5cncnc54)COP(=O)(S)O[C@@H]2[C@@H]3O)c(=O)[nH]1 (single isomer, unassigned) [Example 15D] | < 1
Nc1nc2c(ncn2[C@@H]2O[C@@H]3COP(=O)(S)OCCn4nc(-c5cncs5)nc4COP(=O)(S)O[C@@H]2[C@@H]3F)c(=O)[nH]1 (single isomer, unassigned) [Example 16A] | < 1
Nc1nc2c(ncn2[C@@H]2O[C@@H]3COP(=O)(S)OCCn4nc(-c5cncs5)nc4COP(=O)(S)O[C@@H]2[C@@H]3F)c(=O)[nH]1 (single isomer, unassigned) [Example 16C] | < 1
Nc1nc2c(ncn2[C@@H]2O[C@@H]3COP(=O)(S)OCCn4nc(-c5cncs5)nc4COP(=O)(S)O[C@@H]2[C@@H]3F)c(=O)[nH]1 (single isomer, unassigned) [Example 16D] | < 1
Nc1nc2c(ncn2[C@@H]2O[C@@H]3COP(=O)(S)OCCn4c(nc5cnccc54)COP(=O)(S)O[C@@H]2[C@@H]3F)c(=O)[nH]1 (single isomer, unassigned) [Example 17C] | < 1
C[C@H]1COP(=O)(S)OC[C@H]2O[C@@H](n3cnc4c(=O)[nH]c(N)nc43)[C@H](OP(=O)(S)OCc3nc4cncnc4n31)[C@@H]2F (single isomer, unassigned) [Example 20D] | 10 to 100
Nc1nc2c(nc3n2CCOP(=O)(S)OC[C@H]2O[C@@H](n4cnc5c(N)ncnc54)[C@H](OP(=O)(S)OC3)[C@@H]2F)c(=O)[nH]1 (single isomer, unassigned) [Example 23D] | 10 to 100
Nc1nc2c(nnn2[C@@H]2O[C@@H]3COP(=O)(S)OCCn4c(nc5cncnc54)COP(=O)(S)O[C@@H]2[C@@H]3F)c(=O)[nH]1 (single isomer, unassigned) [Example 24A] | < 1
Nc1nc2c(nnn2[C@@H]2O[C@@H]3COP(=O)(S)OCCn4c(nc5cncnc54)COP(=O)(S)O[C@@H]2[C@@H]3F)c(=O)[nH]1 (single isomer, unassigned) [Example 24B] | 10 to 100
Nc1nc2c(nnn2[C@@H]2O[C@@H]3COP(=O)(S)OCCn4c(nc5cncnc54)COP(=O)(S)O[C@@H]2[C@@H]3F)c(=O)[nH]1 (single isomer, unassigned) [Example 24C] | < 1
Nc1nc2c(nnn2[C@@H]2O[C@@H]3COP(=O)(S)OCCn4c(nc5cncnc54)COP(=O)(S)O[C@@H]2[C@@H]3F)c(=O)[nH]1 (single isomer, unassigned) [Example 24D] | < 1
Nc1nc2c(ncn2[C@@H]2O[C@@H]3COP(=O)(S)OCCn4nc(-c5ccncc5)nc4COP(=O)(S)O[C@@H]2[C@@H]3F)c(=O)[nH]1 (single isomer, unassigned) [Example 34B] | 1 to 9.99
Nc1nc2c(ncn2[C@@H]2O[C@@H]3COP(=O)(S)OCCn4nc(-c5ccncc5)nc4COP(=O)(S)O[C@@H]2[C@@H]3F)c(=O)[nH]1 (single isomer, unassigned) [Example 34C] | < 1
Nc1nc2c(ncn2[C@@H]2O[C@@H]3COP(=O)(S)OCCn4nc(-c5ccncc5)nc4COP(=O)(S)O[C@@H]2[C@@H]3F)c(=O)[nH]1 (single isomer, unassigned) [Example 34D] | 1 to 9.99
